Reference: publication PMC10861593, “Kisspeptin-10 binding to Gpr54 in osteoclasts prevents bone loss by activating Dusp18-mediated dephosphorylation of Src” (Nature Communications, 2024)
Entries after “also recorded” stand apart in the source; their conditions may differ.

Tests used:
[1] = system: DUSP18, Src, and GPR54 complex; test: Co-IP: DUSP18, Src and GPR54 heterotrimer complex formation in transfected 293T cells; type: cell-based; settings: 293T with HA-Src, GPR54-Myc, DUSP18 (C104S)-Flag, Kp-10 20 min
Experimental: Anti-Flag IP derived from 293 T cells transfected with HA-Src and either DUSP18-Flag or DUSP18 (C104S)-Flag constructs with or without Kp-10 treatment for 20 min were lysed and subjected to anti-FLAG IP (b). Phosphatase reaction products using His-DUSP18 and His-DUSP18 (C104S) proteins purified from E. coli and SRC proteins purified from Sf9 insect cells (c) and quantification of protein levels (d). Anti-Src IP derived from RAW264.7 cells treated with or without Kp-10 treatment for 20 min were lysed and subjected to anti-Src IP (e) and quantification of protein levels (f). g, h Src and Dusp18 co-localization was analyzed by IF staining in primary pre-osteoclasts treated with 10 nM Kp-10 treatment for 20 min. Representative images of endogenous Dusp18 and Src were shown by TIRF microscopy (g), and MOC was used to quantify the degree of colocalization in cells from multiple images taken randomly (h). Scale bar, 50 µm. i–m IB and quantification of protein levels analysis. Anti-Flag IP derived from 293 T cells transfected with HA-Src, GPR54-myc, and either DUSP18-Flag or DUSP18 (C104S)-Flag constructs after Kp-10 treatment for 20 min (i) and quantification of protein levels (j, k). […] Scale bars, 125 µm (n), and pits depth were quantified by confocal microscopy (o). […] P values were determined by one-way ANOVA analysis (d, f, j, k, m, o) or by two-tailed Student’s t-test (h). […]

[2] = system: Dusp18 expression; test: WB of Dusp18 protein expression in RAW264.7 cells; type: cell-based, mouse
Text: Anti-Flag IP of lysates derived from 293 T cells transfected with GPR54-flag and Src-HA constructs (d) and quantification results (e). Anti-Flag IP of lysates derived from 293 T cells transfected with GPR54-flag and DUSP18-HA constructs (f) and quantification results (g). Anti-Flag IP of lysates derived from 293 T cells transfected with Src-HA, and DUSP18-flag constructs (h) and quantification results (i). j, k IB analysis of lysates derived from WT BMMs and Gq/11 KO BMMs with or without Kp-10 treatment for 1 h (j) and quantification of results (k). l Working model of Kp-10 /Gpr54 mediated Src dephosphorylation. […] However, both active Src and DUSP18 were recruited by GPR54 through the PR motif in GPR54 CT along with the increase of Kp-10 dose (1, 10 nM). […] Data represent means ± SEM. P values were determined by one-way ANOVA analysis (b, c, e, g, i, k). Representative results were obtained from at least three independent experiments. Source data are provided as a Source Data file.
Whole-cell proteins were extracted using 1x RIPA buffer (25 mM Tris, pH7.5, 150 mM NaCl, 0.5% Sodium deoxycholate, 1% Triton-X-100) supplemented with protease inhibitors (Complete Mini, Roche) and phosphatase inhibitors (phosphatase inhibitor cocktail set I and II, Calbiochem). Immunoprecipitation and immunoblotting with indicated antibodies were performed as described in Supplementary Table 1. Image Jsoftware (V1.52) was used for quantification analysis. Uncropped and unprocessed blots are presented in the Supplementary Information file.
Supplementary Fig. 7 a-b IB and quantification of Dusp18 protein level induced by indicated dose of Kp-10 for 1 hour in RAW264.7 cells (a) and quantification of protein levels (b) or induced by Kp-10 (1nM) for 1 hour in RAW264.7 transfected with ERK1/2 siRNA. Error bars are ± SEM. P-values were determined by one-way ANOVA analysis (b). ****P <0.0001. “ns” means no significant difference. Representative results were observed from at least three independent experiments. Source data are provided as a Source Data file.

[3] = system: giant cell tumor of bone (GCT) cells; test: TRAP assay of osteoclast formation in human giant cell tumor of bone (GCT) cells; type: cell-based; settings: Kp-10 5–7 days
Experimental: BMMs (5 × 10^3 cells/well) were seeded into 96-well plates with a bone slice and incubated with M-CSF (10 ng/ml) and RANKL (50 ng/ml) with or without Kp-10, and the culture medium was changed every other day for 5–7 days. Osteoclasts were fixed and stained by phalloidin and DAPI. “Pits” on bone slice after osteoclast resorption were fixed with 4% Glutaraldehyde and stained with 1% toluidine blue, and pit depth was examined by laser-scanning confocal microscopy. For primary cultures of giant-cell tumor of bone (GCTB) cells, the use of all patient-derived tumor specimens was approved by the Institutional Review Board and the research ethics committee of Shanghai Changzheng Hospital, which appeared in the proceedings of the meeting of the Ethics Committee on 18 November 2014 (report number: 2014090). Informed consent obtained from all tissue donors was written. The GCTB cells were isolated from tumor samples derived from tumor resections in Shanghai Changzheng Hospital, 1 × 10^6 GCTB cells were seeded in a 24-well plate. Cells were stimulated with indicated doses of Kp-10 for 5–7 days. The medium was changed every 2 days. Osteoclasts were fixed and stained using the TRAP-staining kit (Sigma-Aldrich, 387A-1KT).

With Kisspeptin-10 [Kp-10] the “heterotrimer complex formation with DUSP18 (C104S)” value [1] was “but not when the catalytic center of DUSP18 was killed”, the “protein level of Dusp18 upon ERK1/2 siRNA” value ([2]; RAW264.7, ERK1/2 siRNA, Kp-10 (1 nM) 1 h) was “cannot be obviously up-regulated” and the “expression of Dusp18 (protein), 10 nM” value ([2]; RAW264.7, Kp-10 10 nM for 1 h) was “not by 10 nM Kp-10”. For the same substance, the “expression of Dusp18 (protein), 0.1 and 1 nM” value ([2]; RAW264.7, Kp-10 0.1, 1 nM for 1 h) was “obviously upregulated the expression of Dusp18; also recorded: induced the expression of Dusp18 obviously” and the osteoclast formation [3] was “suppressed osteoclast formation; also recorded: dose-dependently suppressed”.
